From patent publication US20110053900A1, “PROGESTERONE ANTAGONISTS SUCH AS CDB-4124 IN THE TREATMENT OF BREAST CANCER” (Repros Therapeutics inc, priority 2008, published 2011)
Marks after values point to notes of the source that are not given here.

Columns and labels:
[1] = system: DMBA-induced tumors of the rat mammary gland; experiment: DMBA-induced breast tumors: tumor number and tumor type at necropsy; type: in vivo; conditions: for ACA + PCA per rat / ACA per rat / FA/AF no. / Incidence of tumors (%) / Incidence of tumors (rats with tumors/rats) / PCA per rat: 28 days
Experimental: (§1) To induce breast tumors, Sprague-Dawley female rats were given 10 mg/kg body weight of DMBA at 50 days of age. One group of 14 rats (Group 2) received sesame oil at 50 days of age instead of DMBA to serve as the no-DMBA controls. Animals were weighed and palpated weekly along the milk line for any sign of lesions or swellings. Tumor nodules were noted and measured weekly in two dimensions with calipers. When tumors grew to a size of 10-12 mm in any dimension, the individual animal was randomized into one of 14 groups. Tumors appeared as soon as 39 days after oral gavage and as late as 194 days (latter individual not included in study). The mean latency period for tumor appearance was 106±30 days.
(§2) Animals were treated for 28 days on the following schedule. Group 1 received daily subcutaneous (s.c.) injections of vehicle (10% ethanol in sesame oil). Group 2 (no DMBA control group-no tumors expected) received vehicle on a schedule decided beforehand to simulate initiation of treatment over a three-month time period. […] Groups 5 through 9 received 20 mg/kg, 10 mg/kg, 2 mg/kg, 1 mg/kg and 0.1 mg/kg of CDB-4124, respectively. Groups 10 through 14 mirrored the treatment given 5 through 9 except that 10 mg/kg of micronized progesterone was also added as a component to compositions for injections.
(§3) Animals were sacrificed 3-5 days after the end of the 28-day treatment period, blood was drawn, and tumors were removed, weighed, measured, inspected, and portions frozen and/or placed in 10% phosphate buffered formalin for histopathology. The tissue samples were cut and stained with hematoxylin and eosin and were evaluated for histopathological classification.
Histologically, four types of tumors were identified (Table 2): adenocarcinomas (ACAs), papillary carcinomas (PCAs), a fibrosarcoma, and fibroadenomas or adenofibromas (FA or AF), the latter two tumor types were not considered to represent frank malignancies.

[2] = system: rat tumors; experiment: Apoptosis in tumors; type: in vivo; conditions: 10 mg/kg
Experimental: Apoptosis was evaluated in the same tumors by an apoptosis hybridization kit (Oncor, Gaithersburg, Md.). The cells in apoptosis were evaluated in the peripheral areas of the tumors and far from necrosis. At least 1,000 cells per tumor section were evaluated.

[3] = Serum cortisol by ELISA; type: in vivo, rat; conditions: 10 mg/kg, 21 days of dosing
Experimental: (§4) The animals were assessed three times for their levels of progesterone: initially, when they were about to go on treatment; a second time after 21 days of treatment; and finally after treatment at sacrifice which was 2-4 days after the last s.c. injection. All blood samples were taken by heart puncture; serum was prepared and held frozen at −40° C. The levels of the steroid hormones progesterone, cortisol, and corticosterone were determined by ELISA.
(§5) The concentrations of steroid hormones were determined three times during the study: before the beginning of treatments, after 21 days of treatment and finally after treatment at sacrifice which was 2-4 days after the last s.c. injection. All samples were taken by heart puncture. Serum was obtained and held frozen at −40° C. The levels of steroid hormones were determined by ELISA.

[4] = system: DMBA-induced tumors of the rat mammary gland; experiment: DMBA-induced breast tumors: tumor number, size and tumor burden at necropsy; type: in vivo; conditions: for Tumor Burden / Tumor Weight mean / Tumor Weight median / Number of Tumors: 28 days; for Number of Tumors: FA/AF excluded; for lowering of tumor burden and median tumor sizes: 10 mg/kg, versus control
Experimental: as §1, §2, §3
The results in Table 3 are those for ACA, PCA and mixed ACA/PCA, but the FA or AF tumors are excluded.

[5] = system: DMBA-induced tumors of the rat mammary gland; experiment: DMBA-induced breast tumors: tumor progression (growth pattern); type: in vivo; conditions: 10 mg/kg
Experimental: as §1, §2
In order to evaluate the effects of CDB-4124, RU486 and progesterone on tumor development and progression, growth kinetics and tumor size were monitored during the treatment period. Individual tumors from animals with tumors in the study were measured weekly in two dimensions with calipers. The data is corrected to exclude the non-malignant FA/AF tumor types. Tumors that increased in cross-sectional area by at least 33% over the 28-day inspection period were considered to be growing (FIG. 1, black boxes). Those that decreased by approximately 33% were considered to be regressing (FIG. 1, white boxes). Others were considered to be static (FIG. 1, gray boxes).

[6] = Serum progesterone by ELISA; type: in vivo, rat; conditions: for Serum Progesterone, Before TX (mean): before treatment; for Serum Progesterone, During TX (mean): after 21 days of treatment; for Serum Progesterone, After TX (mean): at sacrifice 2-4 days after the last s.c. injection
Experimental: as §4, §5

[7] = system: rat tumors (proliferation marker Ki-67); experiment: Tumor proliferation by Ki-67 immunohistochemistry; type: in vivo; conditions: 10 mg/kg
Excerpt: In order to assess the effects of progestins and anti-progestins on cell proliferation, tissue sections derived from 46 individual rat tumors from treated an control animals were examined by measuring expression of the proliferation marker Ki-67 using the Ki-67 antibody (NeoMarkers, Fremont, Calif.) and immunohistochemistry. Despite the reduction in size of many tumors in Groups 3 and 6 following treatment in Groups 3 and 6 making them too small to be re-cut, 7-12 ACAs from Groups 1, 3, 4, 6 and 11 were re-cut. The results of proliferation experiments, in which proliferation was measured as a percentage of cells expressing Ki-67, are summarized in Table 4: […]

[8] = Animal weight during the study; type: in vivo; conditions: weighed weekly, 27-week study period
Excerpt: The weights of the control animals were compared to those receiving hormonal treatment to better assess toxicity, especially that due to CDB-4124. The animals were weighed weekly during the 27-week study period.

In the case of `COCC(=O)[C@@]1(OC(C)=O)CC[C@H]2[C@@H]3CCC4=CC(=O)CCC4=C3[C@@H](c3ccc(N(C)C)cc3)C[C@@]21C` [CDB-4124, 21-methoxy-17α-acetoxy-11β-(4 N,N-dimethylaminophenyl)-19-norpregna-4,9-diene-3,20-dione], the “ACA + PCA per rat” value ([1]; 0.1 mg/kg s.c. daily) is reported as 2.25, the ACA per rat ([1]; 0.1 mg/kg s.c. daily) is reported as 1.17 and the FA/AF no. ([1]; 0.1 mg/kg s.c. daily) is reported as 3. The “Incidence of tumors (%)” value ([1]; 0.1 mg/kg s.c. daily) was “(100) %”, the “Incidence of tumors (rats with tumors/rats)” value ([1]; 0.1 mg/kg s.c. daily) was 12/12 and the PCA per rat ([1]; 0.1 mg/kg s.c. daily) was 0.83. The “ACA + PCA per rat” value ([1]; 1 mg/kg s.c. daily) was 1.78, the ACA per rat ([1]; 1 mg/kg s.c. daily) was 1.67 and the FA/AF no. ([1]; 1 mg/kg s.c. daily) was 2. For the same molecule, the “Incidence of tumors (%)” value ([1]; 1 mg/kg s.c. daily) was “(82) %”, the “Incidence of tumors (rats with tumors/rats)” value ([1]; 1 mg/kg s.c. daily) was 9/11 and the PCA per rat ([1]; 1 mg/kg s.c. daily) was 0.11. The “ACA + PCA per rat” value ([1]; 2 mg/kg s.c. daily) was 1.55, the ACA per rat ([1]; 2 mg/kg s.c. daily) was 1.45 and the FA/AF no. ([1]; 2 mg/kg s.c. daily) was 2. For the same molecule, the “Incidence of tumors (%)” value ([1]; 2 mg/kg s.c. daily) was “(92) %”, the “Incidence of tumors (rats with tumors/rats)” value ([1]; 2 mg/kg s.c. daily) was 11/12 and the PCA per rat ([1]; 2 mg/kg s.c. daily) was 0.09. The “ACA + PCA per rat” value ([1]; 10 mg/kg s.c. daily) was 1.70, the ACA per rat ([1]; 10 mg/kg s.c. daily) was 1.5 and the FA/AF no. ([1]; 10 mg/kg s.c. daily) was 1. The “Incidence of tumors (%)” value ([1]; 10 mg/kg s.c. daily) was “(91) %”, the “Incidence of tumors (rats with tumors/rats)” value ([1]; 10 mg/kg s.c. daily) was 10/11 and the PCA per rat ([1]; 10 mg/kg s.c. daily) was 0.2. For the same molecule, the “ACA + PCA per rat” value ([1]; 20 mg/kg s.c. daily) was 1.38, the ACA per rat ([1]; 20 mg/kg s.c. daily) was 1.31 and the FA/AF no. ([1]; 20 mg/kg s.c. daily) was 3. For the same molecule, the “Incidence of tumors (%)” value ([1]; 20 mg/kg s.c. daily) was “(100) %”, the “Incidence of tumors (rats with tumors/rats)” value ([1]; 20 mg/kg s.c. daily) was 13/13 and the PCA per rat ([1]; 20 mg/kg s.c. daily) was 0.08. For the same molecule, the “average multiplicity across the highest four treatment groups” value ([1]; 20, 10, 2, 1 mg/kg/day) was 1.58 tumors per rat, the “Apoptosis, % cells positive” value [2] was 3.84 ± 3.10% and the “serum cortisol versus control group (in words)” value [3] was “significantly higher levels of serum cortisol”. The “Tumor Burden” value ([4]; 0.1 mg/kg s.c. daily) was 5.1 g/rat, the “Tumor Weight mean” value ([4]; 0.1 mg/kg s.c. daily) was 2.26 g and the “Tumor Weight median” value ([4]; 0.1 mg/kg s.c. daily) was 0.17 g. The “Number of Tumors” value ([4]; 0.1 mg/kg s.c. daily) was 29, the “Tumor Burden” value ([4]; 1 mg/kg s.c. daily) was 0.94 g/rat and the “Tumor Weight mean” value ([4]; 1 mg/kg s.c. daily) was 0.53 g. For the same molecule, the “Tumor Weight median” value ([4]; 1 mg/kg s.c. daily) was 0.17 g, the “Number of Tumors” value ([4]; 1 mg/kg s.c. daily) was 16 and the “Tumor Burden” value ([4]; 2 mg/kg s.c. daily) was 4.61 g/rat. For the same molecule, the “Tumor Weight mean” value ([4]; 2 mg/kg s.c. daily) was 2.98 g, the “Tumor Weight median” value ([4]; 2 mg/kg s.c. daily) was 0.09 g and the “Number of Tumors” value ([4]; 2 mg/kg s.c. daily) was 17. For the same molecule, the “Tumor Burden” value ([4]; 10 mg/kg s.c. daily) was 0.48 g/rat, the “Tumor Weight mean” value ([4]; 10 mg/kg s.c. daily) was 0.26 g and the “Tumor Weight median” value ([4]; 10 mg/kg s.c. daily) was 0.075 g. The “Number of Tumors” value ([4]; 10 mg/kg s.c. daily) was 18, the “lowering of tumor burden and median tumor sizes” value [4] was 10 fold and the “Tumor Burden” value ([4]; 20 mg/kg s.c. daily) was 4.71 g/rat. The “Tumor Weight mean” value ([4]; 20 mg/kg s.c. daily) was 3.4 g, the “Tumor Weight median” value ([4]; 20 mg/kg s.c. daily) was 0.125 g and the “Number of Tumors” value ([4]; 20 mg/kg s.c. daily) was 20. The “proportion of tumors regressing” value ([5]; decrease of cross-sectional area by about 33% over 28 days) was 70%, the “Serum Progesterone, Before TX (mean)” value ([6]; 0.1 mg/kg group) was 54 ng/mL and the “Serum Progesterone, During TX (mean)” value ([6]; 0.1 mg/kg) was 53 ng/mL. The “Serum Progesterone, After TX (mean)” value ([6]; 0.1 mg/kg) was 53 ng/mL, the “Serum Progesterone, Before TX (mean)” value ([6]; 1 mg/kg group) was 64 ng/mL and the “Serum Progesterone, During TX (mean)” value ([6]; 1 mg/kg) was 47 ng/mL. For the same molecule, the “Serum Progesterone, After TX (mean)” value ([6]; 1 mg/kg) was 42 ng/mL, the “Serum Progesterone, Before TX (mean)” value ([6]; 2 mg/kg group) was 59 ng/mL and the “Serum Progesterone, During TX (mean)” value ([6]; 2 mg/kg) was 74* ng/ml. For the same molecule, the “Serum Progesterone, After TX (mean)” value ([6]; 2 mg/kg) was 56 ng/mL, the “Serum Progesterone, Before TX (mean)” value ([6]; 10 mg/kg group) was 52 ng/mL and the “Serum Progesterone, During TX (mean)” value ([6]; 10 mg/kg) was 77* ng/ml. For the same molecule, the “Serum Progesterone, After TX (mean)” value ([6]; 10 mg/kg) was 43 ng/mL, the “Serum Progesterone, Before TX (mean)” value ([6]; 20 mg/kg group) was 61 ng/mL and the “Serum Progesterone, During TX (mean)” value ([6]; 20 mg/kg) was 96* ng/ml. The “Serum Progesterone, After TX (mean)” value ([6]; 20 mg/kg) was 58 ng/mL, the “Proliferating tumor cells by Ki-67, % cells positive” value [7] was 5.1 ± 4.2% and the “toxicity by animal weight, treated vs. control (in words)” value [8] was “not toxic, even at a high dose level”.
For `CC#C[C@]1(O)CC[C@H]2[C@@H]3CCC4=CC(=O)CCC4=C3[C@@H](c3ccc(N(C)C)cc3)C[C@@]21C` [RU 486, mifepristone, reference compound], the “ACA + PCA per rat” value ([1]; 10 mg/kg s.c. daily) was 2.00, the ACA per rat ([1]; 10 mg/kg s.c. daily) was 2.08 and the FA/AF no. ([1]; 10 mg/kg s.c. daily) was 1. For the same molecule, the “Incidence of tumors (%)” value ([1]; 10 mg/kg s.c. daily) was “(93) %”, the “Incidence of tumors (rats with tumors/rats)” value ([1]; 10 mg/kg s.c. daily) was 13/14 and the PCA per rat ([1]; 10 mg/kg s.c. daily) was 0.08. For the same molecule, the “Apoptosis, % cells positive” value [2] was 3.34 ± 2.57%, the “serum cortisol versus control group (in words)” value [3] was “no significant difference in the levels of cortisol” and the “Tumor Burden” value ([4]; 10 mg/kg s.c. daily) was 2.47 g/rat. For the same molecule, the “Tumor Weight mean” value ([4]; 10 mg/kg s.c. daily) was 1.19 g, the “Tumor Weight median” value ([4]; 10 mg/kg s.c. daily) was 0.16 g and the “Number of Tumors” value ([4]; 10 mg/kg s.c. daily) was 27. The “lowering of tumor burden and median tumor sizes” value [4] was 5 fold, the “effect on tumor growth pattern (in words)” value ([5]; compared to the controls) was “apparent increase in the proportion of regressing tumors” and the “Serum Progesterone, Before TX (mean)” value ([6]; 10 mg/kg group) was 58 ng/mL. For the same molecule, the “Serum Progesterone, During TX (mean)” value ([6]; 10 mg/kg) was 72* ng/ml, the “Serum Progesterone, After TX (mean)” value ([6]; 10 mg/kg) was 52 ng/mL and the “Proliferating tumor cells by Ki-67, % cells positive” value [7] was 12.9 ± 7.0%.
